Measured values reported in the supplement of paper PMC10307832.

Assays:
Test in all cases: relative viability (nuclei count vs DMSO), 5 days (fraction); higher = more cells survive
[1] = compound: Cn1cnc2c(F)c(Nc3ccc(Br)cc3Cl)c(C(=O)NOCCO)cc21 [Selumetinib] + C[C@@H](Oc1cc(-c2cnn(C3CCNCC3)c2)cnc1N)c1c(Cl)ccc(F)c1Cl [Crizotinib] (partner 1 µM)
Summary of the method: (§1)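 Dosing by pin tool came one day after lung cancer cell lines were seeded in 1536-well plates, using either one drug or a fixed anchor-drug dose plus five library-drug doses (not always all listed) in √10 steps. After 5 days, nuclei were counted on 4× images. Relative viability is treated-well nuclei count divided by vehicle-well nuclei count, and values are medians of duplicate plates.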

[2] = compound: CC1(C)CCC(CN2CCN(c3ccc(C(=O)NS(=O)(=O)c4ccc(NCC5CCOCC5)c([N+](=O)[O-])c4)c(Oc4cnc5[nH]ccc5c4)c3)CC2)=C(c2ccc(Cl)cc2)C1 [Venetoclax] + C[C@]1(O)C[C@@H](c2nc(-c3ccc4ccc(-c5ccccc5)nc4c3)c3c(N)nccn32)C1 [Linsitinib] (partner 1 µM)
Summary of the method: as §1

[3] = compound: Cn1cnc2c(F)c(Nc3ccc(Br)cc3Cl)c(C(=O)NOCCO)cc21 [Selumetinib] + Nc1nc2[nH]cc(CCc3ccc(C(=O)N[C@@H](CCC(=O)O)C(=O)O)cc3)c2c(=O)[nH]1 [Pemetrexed] (partner 0.2 µM)
Summary of the method: as §1

[4] = compound: Cn1cnc2c(F)c(Nc3ccc(Br)cc3Cl)c(C(=O)NOCCO)cc21 [Selumetinib] + O=C(c1cc(Cc2n[nH]c(=O)c3ccccc23)ccc1F)N1CCN(C(=O)C2CC2)CC1 [Olaparib] (partner 8 µM)
Summary of the method: as §1

Cell Line | relative viability ([1]; first compound 0.02 µM) | relative viability ([1]; first compound 0.06325 µM) | relative viability ([1]; first compound 0.2 µM) | relative viability ([1]; first compound 0.6325 µM) | relative viability ([2]; first compound 0.01 µM) | relative viability ([2]; first compound 0.03162 µM) | relative viability ([2]; first compound 0.1 µM) | relative viability ([2]; first compound 0.3162 µM) | relative viability ([2]; first compound 1 µM) | relative viability ([3]; first compound 0.02 µM) | relative viability ([3]; first compound 0.06325 µM) | relative viability ([3]; first compound 0.2 µM) | relative viability ([3]; first compound 0.6325 µM) | relative viability ([4]; first compound 0.02 µM) | relative viability ([4]; first compound 0.06325 µM) | relative viability ([4]; first compound 0.2 µM) | relative viability ([4]; first compound 0.6325 µM)
NCI-H1792 | 0.986 | 0.86 | 0.816 | 0.682 | 0.469 | 0.46 | 0.467 | 0.408 | 0.591 | 0.637 | 0.648 | 0.634 | 0.557 | 0.256 | 0.353 | 0.439 | 0.235
NCI-H23 | 0.583 | 0.47 | 0.328 | 0.406 | 0.646 | 0.648 | 0.527 | 0.467 | 0.533 | 0.811 | 0.43 | 0.465 | 0.529 | 0.283 | 0.312 | 0.267 | 0.293
EMC-BAC-2 | 0.754 | 0.719 | 0.778 | 0.834 | 0.789 | 0.834 | 0.816 | 0.814 | 0.787 | 0.508 | 0.539 | 0.522 | 0.574 | 0.636 | 0.657 | 0.674 | 0.717
NCI-H2023 | 0.649 | 0.533 | 0.431 | 0.503 | 0.685 | 0.636 | 0.657 | 0.682 | 0.678 | 0.247 | 0.137 | 0.239 | 0.195 | 0.555 | 0.467 | 0.454 | 0.487
NCI-H647 | 1.14 | 0.942 | 0.926 | 0.99 | 0.996 | 1.15 | – | 1.4 | 1.02 | 0.177 | 0.178 | 0.19 | 0.173 | 0.608 | 0.605 | 0.479 | 0.643
NCI-H661 | 1.25 | 0.945 | 1.07 | 1.23 | 0.676 | 0.662 | 0.551 | 0.703 | 0.567 | 0.955 | 0.875 | 0.92 | 0.872 | 0.808 | 0.722 | 0.696 | 0.727
NCI-H1975 | 1.1 | 0.898 | 0.933 | 0.766 | 1.02 | 0.971 | 0.869 | 0.92 | 0.92 | 0.288 | 0.309 | 0.302 | 0.283 | 0.799 | 0.88 | 0.658 | 0.582
NCI-H1437 | 0.922 | 0.896 | 0.829 | 0.561 | 0.92 | 1.08 | 0.975 | 0.952 | 0.932 | 0.302 | 0.253 | 0.246 | 0.259 | 0.665 | 0.58 | 0.549 | 0.47
